# According to patent US20260027096A1, “PHD INHIBITORS” (Oxford University Innovation Limited, priority 2023, published 2026):
# Target: PHD2 (Homo sapiens (Human), UniProt Q9GZT9)
# Assay: PHD2 RF-MS (RapidFire LC-MS) hydroxylation assay
# Format: biochemical
# Method: In brief, cDNA encoding for the catalytic domain of tPHD2 (181-426 residues) was cloned into the pET28a (+)/pET24a (+) vectors (Novagen), to enable production of tPHD2 (residues 181-426) protein with/without an N-terminal His6-tag. The tPHD2 (residues 181-426) encoding construct was transformed into the Escherichia coli BL21 DE3 cell line; protein production was induced with 0.5 mM […] (3-5 hr at 28° C.). […] The protein was exchanged into 50 mM Tris-HCl buffer (pH 7.5) and concentrated to % 40 mg/ml.
# Tris(hydroxymethyl)aminomethane was from Fisher. Ferrous ammonium sulfate (FAS), 2-oxoglutarate (2OG) and L-ascorbic acid were from Sigma Aldrich; solutions of these were prepared freshly each day. All inhibition assays were carried out in 384-well polypropylene plates (Greiner Bio-One). PHD2 assays were performed in assay buffer (50 mM Tris. Cl pH 7.5, 50 mM NaCl). […] The final assay concentration of DMSO was kept constant at 0.5%. PHD2 protein was prepared at a concentration of 300 nM in assay buffer and 25 μl dispensed across each 384-well assay plate. The PHD2 solution was allowed to equilibrate with the inhibitors for 15 minutes at room temperature; the enzyme reaction then initiated by dispense of 25 μl of substrate (20 μM FAS, 200 µM L-ascorbic acid, 10 μM CODD peptide and 20 μM 2OG in the assay buffer. Enzyme reactions were allowed to proceed for 20 minutes at room temperature and the reaction terminated by addition of 10% formic acid (5 μl). Assay plates were then transferred to a RapidFire RF360 sampling robot (Agilent) connected to an Agilent 6530 accurate mass quadrupole-time-of-flight (Q-TOF) mass spectrometer. Assay samples were aspirated under vacuum and loaded onto a C4 solid phase extraction (SPE) cartridge. After loading the C4 SPE was washed with 0.1% formic acid in water to remove non-volatile buffer salts and then peptide was eluted from the SPE with 85% acetonitrile, 15% water containing 0.1% formic acid onto the mass spectrometer. Peptide charge states were monitored in positive mode. Ion chromatogram data were extracted for the +2 charge state and peak area data integrated using RapidFire Integrator software (Agilent). % conversion of the CODD peptide substrate to the +16 hydroxylated peptide was calculated using the equation: % conversion=100×hydroxylated/(hydroxylated+non-hydroxylated peptide). IC50 values were determined from non-linear regression plots using GraphPad prism.
# Example 158—Structure activity relationship (SAR) studies for PHD inhibition SAR studies for PHD inhibition were carried out on the compounds of the invention. Compounds were screened against PHD2 using the RF-MS hydroxylation assay.
# Chain of PHD2 (Q9GZT9 181-426): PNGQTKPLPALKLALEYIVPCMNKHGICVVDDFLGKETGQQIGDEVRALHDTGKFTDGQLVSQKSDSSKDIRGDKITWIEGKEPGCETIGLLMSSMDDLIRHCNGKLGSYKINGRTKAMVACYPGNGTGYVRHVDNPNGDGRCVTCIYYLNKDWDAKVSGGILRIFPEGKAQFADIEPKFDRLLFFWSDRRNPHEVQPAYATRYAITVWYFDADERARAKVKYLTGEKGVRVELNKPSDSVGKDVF
row,IC50 [nM],Structure (SMILES)
1,1000 to 10000,"O=C(O)c1cnn(-c2ccc(C(=O)NCc3ccccc3)cn2)c1 [Compound 32, 1-(5-(Benzylcarbamoyl)pyridin-2-yl)-1H-pyrazole-4-carboxylic acid]"
2,1 to 1000,"O=C(Nc1ccc(-c2ccccc2)cc1)c1cnc(-n2cccn2)cc1O [Compound 42, N-([1,1′-Biphenyl]-4-yl)-4-hydroxy-6-(1H-pyrazol-1-yl) nicotinamide]"
3,1 to 1000,"O=C(NCc1ccc(-c2ccccc2)cc1)c1cnc(-n2cccn2)cc1O [Compound 41, N-([1,1′-Biphenyl]-4-ylmethyl)-4-hydroxy-6-(1H-pyrazol-1-yl) nicotinamide]"
4,1 to 1000,"O=C(NCc1cccc(-c2ccccc2)c1)c1cnc(-n2cccn2)cc1O [Compound 65, N-([1,1′-Biphenyl]-3-ylmethyl)-4-hydroxy-6-(1H-pyrazol-1-yl) nicotinamide]"
5,> 10000,"COc1cc(-n2cc(C(=O)NCc3ccc(-c4ccccc4)cc3)cn2)ncc1C#N [Compound 93, N-([1,1′-Biphenyl]-4-ylmethyl)-1-(5-cyano-4-methoxypyridin-2-yl)-1H-pyrazole-4-carboxamide]"
6,1 to 1000,"O=C(NCc1ccc(OC(F)(F)F)cc1)c1cnc(-n2cccn2)cc1O [Compound 67, 4-Hydroxy-6-(1H-pyrazol-1-yl)-N-(4-(trifluoromethyloxy)benzyl) nicotinamide]"
7,1 to 1000,"O=C(O)c1cnn(-c2ncc(C(=O)NCC3CCC(C(F)(F)F)CC3)cc2O)c1 (centres unmarked) [Compound 129, 1-(3-hydroxy-5-(((4-(trifluoromethyl)cyclohexyl)methyl)carbamoyl)pyridin-2-yl)-1H-pyrazole-4-carboxylic acid]"
8,1 to 1000,"COc1cc(C(=O)NCc2ccc(-c3ccccc3)cc2)cnc1-n1cc(C#N)cn1 [Compound 124, N-([1,1′-biphenyl]-4-ylmethyl)-6-(4-cyano-1H-pyrazol-1-yl)-5-methoxynicotinamide]"
9,1 to 1000,"O=C(O)c1cnn(-c2cc(O)c(C(=O)NCc3ccc(C(F)(F)F)cc3)cn2)c1 [Compound 90, 1-(4-Hydroxy-5-((4-(trifluoromethyl)benzyl)carbamoyl)pyridin-2-yl)-1H-pyrazole-4-carboxylic acid]"
10,1000 to 10000,"O=C(NCc1cccc(-c2ccccc2)c1)c1cnc(-n2cccn2)c(O)c1 [Compound 76, N-([1,1′-Biphenyl]-3-ylmethyl)-5-hydroxy-6-(1H-pyrazol-1-yl) nicotinamide]"
11,1 to 1000,"O=C(NCc1ccc(-c2ccccc2)nc1)c1cnc(-n2cccn2)cc1O [Compound 69, 4-Hydroxy-N-((6-phenylpyridin-3-yl)methyl)-6-(1H-pyrazol-1-yl) nicotinamide]"
12,> 10000,"O=C(NCc1ccc(-c2ccccc2)cc1)c1ccc(-n2cccn2)cc1O [Compound 16, N-([1,1′-biphenyl]-4-ylmethyl)-2-hydroxy-4-(1H-pyrazol-1-yl)benzamide]"
13,1 to 1000,"O=C(Nc1cccc(-c2ccccc2)c1)c1cnc(-n2cccn2)cc1O [Compound 66, N-([1,1′-Biphenyl]-3-yl)-4-hydroxy-6-(1H-pyrazol-1-yl) nicotinamide]"
14,1 to 1000,"O=C(O)c1cnn(-c2ncc(C(=O)NCc3ccc(-c4ccccc4)cc3)cc2O)c1 [Compound 86, 1-(5-(([1,1′-Biphenyl]-4-ylmethyl)carbamoyl)-3-hydroxypyridin-2-yl)-1H-pyrazole-4-carboxylic acid]"
15,1 to 1000,"O=C(O)c1cnn(-c2cc(O)c(C(=O)NCc3ccc(-c4ccccc4)cc3)cn2)c1 [Compound 84, 1-(5-(([1,1′-Biphenyl]-4-ylmethyl)carbamoyl)-4-hydroxypyridin-2-yl)-1H-pyrazole-4-carboxylic acid]"
16,> 10000,"O=C(NCC1CCCCC1)c1cnc(-n2cccn2)cc1O [Compound 44, N-(Cyclohexylmethyl)-4-hydroxy-6-(1H-pyrazol-1-yl) nicotinamide]"
17,1 to 1000,"N#Cc1cnc(-n2cc(C(=O)NCc3ccc(-c4ccccc4)cc3)cn2)cc1O [Compound 95, N-([1,1′-Biphenyl]-4-ylmethyl)-1-(5-cyano-4-hydroxypyridin-2-yl)-1H-pyrazole-4-carboxamide]"
